For two substances, Apitope and IC50 results are on record in patent publication US20230203126A1, “A COMPOSITION COMPRISING S-ARRESTIN PEPTIDES” (WORG PHARMACEUTICALS (HANGZHOU) CO., LTD., priority 2019, published 2023).

Assay [1] relates to SAg-specific hybridoma cells with fresh or fixed APC (VAVY) cells, MHCII. Briefly: Antigen processing independent presentation system (APIPS) assay. Format: cell-based, DR3tg mice. The following applies: 10 or 25 µg/ml peptide, IL-2 ELISA after 48 h. How it is done:
FIG. 10: Variants of peptide 15N3K are apitopes. The ability of variants of the 15N3K peptide to behave as apitopes (i.e. bind to an MHCII molecule and be presented to a T cell by an antigen-presenting cell without undergoing antigen processing) was tested using an APIPS assay. DR3tg mice were immunised with SAg and hybridoma’s were generated. 5*10^4 SAg-specific hybridoma cells were cultured with 5*10^4 fresh or fixed commercial APC (VAVY) cells. Cultures were stimulated with 10 or 25 µg/ml of peptide, as indicated in the graph. T cell activation was measured by IL-2 ELISA on supernatants collected after 48 h. The graph represents the mean of duplicate measurements ± SEM.
Apitopes (Antigen Processing-Independent epiTOPES) are capable of binding to an MHCII molecule and stimulating a response from SAg-specific T cells without further antigen processing. Variants of peptide 15N3K (SEQ ID NO: 3) were tested for their ability to bind to an MHCII molecule and be presented to a T cell hybridoma without further antigen processing in an in vitro antigen processing independent presentation system (APIPS) assay. In other words, peptides consisting of parts of peptide 15N3K and peptides with various degrees of sequence identity with peptide 15N3K were tested for their ability to behave as apitopes.
All but three of the peptides are apitopes.
Antigen-specific hybridoma clones were tested for their reactivity to the peptides, presented by fixed or not fixed (fresh) cells (APCs). 5x10^4 cells were cultured with 10 µg/ml and 25 µg/ml peptide and 5x10^4 fixed or fresh APCs. To fix APCs, cells were incubated with 0.5% paraformaldehyde (Merck, Darmstadt, Germany) (pH7) for 5 min at room temperature (RT). The fixation reaction was stopped by adding 0.4 M glycine (Sigma-Aldrich) and washing the cells in RPMI-10% FCS. After 48 h, antigen-induced IL-2 production was measured by ELISA (R&D Systems, Abingdon, UK).

For assay [2], the target named is HLA-DRA1*0101, DRB1*0301 (DR3) (Homo sapiens, UniProt P01903+P01911, A100K/A102G/A103R/A169T/F55Y/I96L/K41T/L162R/M171V/P40S/Q125H/Q178H/Q39Y/R42S/S66N/T106N/T262R/W38E/Y61H). The assay can be described thus: DR3. The protocol:
(§1) Table printed on a drawing sheet, Figure 9
(§2) The patent's description of the figure: FIG. 9: Diverse patterns of in vitro peptide-MHC II binding for peptides 9K1, 17JK and 15N3K. Binding of peptides 9K1, 17JK and 15N3K to recombinant HLA-DRA1*0101, DRB1*0101 (DR1), DRB1*1501 (DR2), DRB1*0301 (DR3), DRB1*0401 (DR4), DRB1*1101 (DR11), DRB1*0405 (DR4*05) and DRB1*0901 (DR9) was assessed in vitro. IC50 values (µM) are presented and colour-coded per HLA-DR molecule. Low values (green) indicate strong binding, high values (red) indicate low(er) binding.
(§3) FIG. 9 depicts IC50 (µM) values of peptides 9K1K, 17JK and 15N3K binding to the indicated HLA-DR molecules and competing with a known competitor peptide. Values should be compared only within each HLA-DR molecule. Low IC50 values (green) indicate the strongest binder per HLA-DR molecule. Highest values per HLA-DR molecule (red) are indicative of the lowest binder for that HLA-DR molecule. Intermediate values are indicated in orange. […]
(§4) First copying reader's note: The sheet prints no unit; per the patent description the values are IC50 (µM) for peptide binding to the named HLA-DR molecules, with cell shading coding relative binding strength per HLA-DR molecule.
Where the first naming reader finds the target: description_of_the_figure: recombinant HLA-DRA1*0101, DRB1*0101 (DR1), DRB1*1501 (DR2), DRB1*0301 (DR3)

Assay [3] deals with HLA-DRA1*0101, DRB1*0401 (DR4) (Homo sapiens, UniProt P01903+P01911, A100K/A169T/F76Y/I96L/K127E/L162R/M171V/N62H/P40V/Q125Y/R42H/S133A/S149N/S66Y/V115G/V209L/W38E). Briefly: DR4. The protocol: as §1, §2, §3, §4
Where the first naming reader finds the target: description_of_the_figure: recombinant HLA-DRA1*0101, DRB1*0101 (DR1), DRB1*1501 (DR2), DRB1*0301 (DR3), DRB1*0401 (DR4)

Assay [4] has as its target HLA-DRA1*0101, DRB1*0901 (DR9) (Homo sapiens, UniProt P01903+P01911, A100R/A103E/D57H/D86V/F55Y/F60I/F76Y/I96F/K127E/L162R/M171V/P40D/Q125H/Q99R/R33Q/R42F/S133A/S66N/T210M/V115G/W38K/Y107V/Y59G/Y89S). Briefly: DR9. How it is done:
as §1, §2
FIG. 9 depicts IC50 (µM) values of peptides 9K1K, 17JK and 15N3K binding to the indicated HLA-DR molecules and competing with a known competitor peptide. Values should be compared only within each HLA-DR molecule. Low IC50 values (green) indicate the strongest binder per HLA-DR molecule. Highest values per HLA-DR molecule (red) are indicative of the lowest binder for that HLA-DR molecule. Intermediate values are indicated in orange. […] So, combining the peptides into a cocktail treatment, makes the treatment less restricted to a certain HLA-DR type.
as §4

The target in assay [5] is HLA-DRA1*0101, DRB1*1101 (DR11) (Homo sapiens, UniProt P01903+P01911, A100R/A169T/A87E/I96F/K41T/L162R/M171V/P40S/Q125H/Q178H/Q39Y/Q99D/R42S/S66Y/T262R/V115G/W38E). The assay can be described thus: DR11. The protocol:
as §1, §2, §3, §4
Where the first naming reader finds the target: description_of_the_figure: recombinant HLA-DRA1*0101, DRB1*0101 (DR1), DRB1*1501 (DR2), DRB1*0301 (DR3), DRB1*0401 (DR4), DRB1*1101 (DR11)

In general, IC50 refers to the point on the concentration scale where inhibition reaches its midpoint. Read a high IC50 as a need for much substance.

No end group written: not given here.

Sequence of HLA-DRA1*0101, DRB1*1101 (DR11) (P01903 26-254 limits assumed, other chains not shown): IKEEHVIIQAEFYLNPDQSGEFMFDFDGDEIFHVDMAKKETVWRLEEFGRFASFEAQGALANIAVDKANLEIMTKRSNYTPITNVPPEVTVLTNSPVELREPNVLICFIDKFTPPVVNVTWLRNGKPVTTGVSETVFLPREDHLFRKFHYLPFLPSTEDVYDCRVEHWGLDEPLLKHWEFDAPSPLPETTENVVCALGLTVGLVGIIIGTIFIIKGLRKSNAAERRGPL
Sequence of HLA-DRA1*0101, DRB1*0301 (DR3) (P01903 26-254 limits assumed, other chains not shown): as above

Take KKKVIFKKISRDKSVTIYLGKKK-NH2 [15N3K]: in assay [1], the Apitope entry is listed as “Yes”. The IC50 in assay [2] came out at 14.7 µM; in assay [3] it was 0.84 µM; in assay [4], 18.4 µM.
Turning to KKKLTFRRDLYFSRVQVYKKK-NH2 [17JK], the concentration for half-maximal inhibition (IC50) in assay [5] amounted to 0.88 µM.
